Assay results from patent publication US8691753B2 (priority 2009, dated 2014).
Read-outs that look alike come from different tables or passages of the source.

Experiments:
Assay type in all cases: biochemical
[1] = target: MMP-9h (Homo sapiens (Human), UniProt P14780); assay: Inhibition constant (Ki) on MMP-9h; details: human MMP-9
In short: (§1)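 Readout is Ki, obtained with a literature enzymatic protocol; all enzymes tested were human.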

[2] = target: MMP-12h (Homo sapiens (Human), UniProt P39900); assay: Inhibition constant (Ki) on MMP-12h; details: human MMP-12
Sequence of MMP-12h (P39900 106-470): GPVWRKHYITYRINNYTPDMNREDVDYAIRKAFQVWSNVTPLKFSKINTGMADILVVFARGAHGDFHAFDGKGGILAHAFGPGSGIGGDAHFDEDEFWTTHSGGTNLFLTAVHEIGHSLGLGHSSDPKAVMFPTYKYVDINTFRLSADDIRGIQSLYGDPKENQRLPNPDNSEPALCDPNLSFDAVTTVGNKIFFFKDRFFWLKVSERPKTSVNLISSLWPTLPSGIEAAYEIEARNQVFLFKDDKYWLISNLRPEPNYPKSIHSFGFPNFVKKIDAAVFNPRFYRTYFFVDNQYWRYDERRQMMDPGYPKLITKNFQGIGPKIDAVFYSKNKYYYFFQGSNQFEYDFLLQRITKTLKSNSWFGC

[3] = target: MMP-3h (Homo sapiens (Human), UniProt P08254); assay: Inhibition constant (Ki) on MMP-3h; details: human MMP-3
Sequence of MMP-3h (P08254 100-477): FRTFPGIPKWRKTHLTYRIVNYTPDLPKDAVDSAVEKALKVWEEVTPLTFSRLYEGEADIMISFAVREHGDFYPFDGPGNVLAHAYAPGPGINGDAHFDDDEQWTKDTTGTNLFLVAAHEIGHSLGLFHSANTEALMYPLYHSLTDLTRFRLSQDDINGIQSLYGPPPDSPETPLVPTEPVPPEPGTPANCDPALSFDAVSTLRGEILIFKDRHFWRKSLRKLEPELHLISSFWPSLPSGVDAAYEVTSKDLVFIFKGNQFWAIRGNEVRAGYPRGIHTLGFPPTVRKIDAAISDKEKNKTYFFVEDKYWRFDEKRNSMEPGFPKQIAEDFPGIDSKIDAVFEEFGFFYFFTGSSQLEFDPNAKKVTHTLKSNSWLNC
In short: as §1

[4] = target: MMP-8h (Homo sapiens (Human), UniProt P22894); assay: Inhibition constant (Ki) on MMP-8h; details: human MMP-8
Sequence of MMP-8h (P22894 101-467): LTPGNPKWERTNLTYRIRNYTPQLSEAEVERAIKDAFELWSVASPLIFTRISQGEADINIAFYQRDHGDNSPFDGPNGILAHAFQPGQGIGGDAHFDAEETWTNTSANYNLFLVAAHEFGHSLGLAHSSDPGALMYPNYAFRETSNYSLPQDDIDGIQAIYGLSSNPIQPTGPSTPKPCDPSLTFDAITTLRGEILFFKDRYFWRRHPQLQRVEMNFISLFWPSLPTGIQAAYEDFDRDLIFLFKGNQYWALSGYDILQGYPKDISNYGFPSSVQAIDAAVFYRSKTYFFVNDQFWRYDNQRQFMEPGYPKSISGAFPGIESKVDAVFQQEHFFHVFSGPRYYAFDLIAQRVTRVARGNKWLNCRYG

[5] = target: MMP-13h (Homo sapiens (Human), UniProt P45452); assay: Inhibition constant (Ki) on MMP-13h; details: human MMP-13
In short: as §1

[6] = target: MMP-14h (Homo sapiens (Human), UniProt P50281); assay: Inhibition constant (Ki) on MMP-14h; details: human MMP-14
In short: as §1

[7] = target: MMP-2h (Homo sapiens (Human), UniProt P08253); assay: Inhibition constant (Ki) on MMP-2h; details: human MMP-2
Sequence of MMP-2h (P08253 110-660): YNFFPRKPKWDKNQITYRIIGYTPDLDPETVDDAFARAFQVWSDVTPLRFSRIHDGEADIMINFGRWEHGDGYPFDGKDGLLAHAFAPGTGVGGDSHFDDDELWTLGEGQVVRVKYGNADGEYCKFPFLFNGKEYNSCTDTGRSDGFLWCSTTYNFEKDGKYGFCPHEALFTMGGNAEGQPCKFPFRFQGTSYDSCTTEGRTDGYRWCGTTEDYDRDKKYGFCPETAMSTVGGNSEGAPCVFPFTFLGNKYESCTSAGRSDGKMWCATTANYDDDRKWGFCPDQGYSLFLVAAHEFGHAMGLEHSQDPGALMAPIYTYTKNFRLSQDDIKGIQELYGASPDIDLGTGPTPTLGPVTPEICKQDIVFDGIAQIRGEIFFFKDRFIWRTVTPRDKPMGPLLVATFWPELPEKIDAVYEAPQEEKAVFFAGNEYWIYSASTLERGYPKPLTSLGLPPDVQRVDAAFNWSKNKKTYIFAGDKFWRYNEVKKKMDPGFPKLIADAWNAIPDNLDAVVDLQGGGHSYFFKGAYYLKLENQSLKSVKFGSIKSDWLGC
In short: as §1

[8] = target: MMP-10h (Homo sapiens (Human), UniProt P09238); assay: Inhibition constant (Ki) on MMP-10h; details: human MMP-10
Sequence of MMP-10h (P09238 99-476): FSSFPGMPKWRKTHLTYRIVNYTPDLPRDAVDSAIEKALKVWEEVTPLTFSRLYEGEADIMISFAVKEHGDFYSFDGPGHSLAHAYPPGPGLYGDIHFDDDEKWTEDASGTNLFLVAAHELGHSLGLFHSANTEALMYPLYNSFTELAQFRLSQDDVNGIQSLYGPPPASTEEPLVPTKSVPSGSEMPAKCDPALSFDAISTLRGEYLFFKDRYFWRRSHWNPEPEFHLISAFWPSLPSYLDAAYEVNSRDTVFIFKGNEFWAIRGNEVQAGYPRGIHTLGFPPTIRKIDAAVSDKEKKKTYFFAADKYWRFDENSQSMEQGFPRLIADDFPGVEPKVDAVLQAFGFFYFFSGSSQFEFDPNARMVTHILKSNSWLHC

Sequence of MMP-9h (P14780 94-707): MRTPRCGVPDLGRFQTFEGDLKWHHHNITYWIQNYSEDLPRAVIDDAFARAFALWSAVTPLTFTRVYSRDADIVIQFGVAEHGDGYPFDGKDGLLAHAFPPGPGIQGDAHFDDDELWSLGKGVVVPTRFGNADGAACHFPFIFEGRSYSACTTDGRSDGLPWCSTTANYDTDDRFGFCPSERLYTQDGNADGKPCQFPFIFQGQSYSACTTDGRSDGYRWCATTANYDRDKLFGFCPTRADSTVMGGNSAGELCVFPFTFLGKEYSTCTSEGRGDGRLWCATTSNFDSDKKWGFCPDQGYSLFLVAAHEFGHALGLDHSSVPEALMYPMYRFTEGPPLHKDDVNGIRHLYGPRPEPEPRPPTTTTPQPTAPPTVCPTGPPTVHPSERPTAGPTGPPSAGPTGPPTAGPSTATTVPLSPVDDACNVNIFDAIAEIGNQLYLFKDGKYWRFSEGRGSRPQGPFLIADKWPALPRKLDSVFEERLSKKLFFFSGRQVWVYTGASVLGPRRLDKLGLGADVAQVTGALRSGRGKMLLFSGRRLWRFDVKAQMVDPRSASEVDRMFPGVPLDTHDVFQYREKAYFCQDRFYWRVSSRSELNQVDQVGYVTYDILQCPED

Row | SMILES | Ki ([1]; read-out: Ki MMP-9h) [nM] | Ki ([2]; read-out: Ki MMP-12h) [nM] | Ki ([3]; read-out: Ki MMP-3h) [nM] | Ki ([4]; read-out: Ki MMP-8h) [nM] | Ki ([5]; read-out: Ki MMP-13h) [nM] | Ki ([6]; read-out: Ki MMP-14h) [nM] | Ki ([7]; read-out: Ki MMP-2h) [nM] | Ki ([8]; read-out: Ki MMP-10h) [nM] | Ki [1] [nM] | Ki [2] [nM] | Ki [3] [nM] | Ki [4] [nM] | Ki [5] [nM] | Ki [6] [nM] | Ki [7] [nM] | Ki [8] [nM]
1 | NC(=O)[C@H](Cc1c[nH]cn1)NC(=O)[C@H](CCC(=O)O)NC(=O)CCc1ccc(-c2ccc(-c3ccccc3)cc2)cc1 [Compound 67, (S)-5-((S)-1-amino-3-(1H-imidazol-4-yl)-1-oxopropan-2-ylamino)-4-(3-(4′-phenylbiphenyl-4-yl)propanamido)-5-oxopentanoic acid] | > 1000 | 10.2 | 337 | 526 | 36 | > 1000 | 68 | 168 |  |  |  |  |  |  |  | 
2 | NC(=O)[C@H](CO)NC(=O)[C@H](CCC(=O)O)NC(=O)CCc1ccc(-c2ccc(-c3ccccc3)cc2)cc1 [Compound 68, (S)-5-((S)-1-amino-3-hydroxy-1-oxopropan-2-ylamino)-4-(3-(4′-phenylbiphenyl-4-yl)propanamido)-5-oxopentanoic acid] | > 1000 | 3.5 | 108 | 227 | 16.6 | > 1000 | 31 | 71 |  |  |  |  |  |  |  | 
3 | CC(C)C[C@H](NC(=O)[C@H](CCC(=O)O)NC(=O)CCc1ccc(-c2ccc(-c3ccccc3)cc2)cc1)C(N)=O [Compound 69, (S)-5-((S)-1-amino-4-methyl-1-oxopentan-2-ylamino)-4-(3-(4′-phenylbiphenyl-4-yl)propanamido)-5-oxopentanoic acid] | > 1000 | 7.8 | 258 | 567 | 81 | > 5000 | 332 | 382 |  |  |  |  |  |  |  | 
4 | O=C(O)CC[C@H](NC(=O)CCc1ccc(-c2ccc(-c3ccccc3)cc2)cc1)C(=O)N1CCC[C@@H](CC(=O)O)C1 [Compound 70, (S)-5-((S)-3-(carboxymethyl)piperidin-1-yl)-4-(3-(4′-phenylbiphenyl-4-yl)propanamido)-5-oxopentanoic acid] | > 5000 | 4.7 | 231 | 105 | 17 | > 1000 | 12 | 421 |  |  |  |  |  |  |  | 
5 | O=C(O)CC[C@H](NC(=O)CCc1ccc(-c2ccc(-c3ccccc3)cc2)cc1)C(=O)Nc1cccc(CC(=O)O)c1 [Compound 71, (S)-5-(3-(carboxymethyl)phenylamino)-4-(3-(4′-phenylbiphenyl-4-yl)propanamido)-5-oxopentanoic acid] | 645 | 1.05 | 34 | 99 | 10.2 | 696 | 18.1 | 7.7 |  |  |  |  |  |  |  | 
6 | NC(=O)CC[C@H](NC(=O)CCc1ccc(-c2ccc(-c3ccccc3)cc2)cc1)C(=O)N[C@@H](CCC(=O)O)C(N)=O [Compound 72, (S)-5-amino-4-((S)-5-amino-2-(3-(4′-phenylbiphenyl-4-yl)propanamido)-5-oxopentanamido)-5-oxopentanoic acid] |  |  |  |  |  |  |  |  | > 5000 | 134 | 64 | > 1000 | 180 | > 5000 | 386 | > 1000
7 | NCCCC[C@H](NC(=O)CCc1ccc(-c2ccc(-c3ccccc3)cc2)cc1)C(=O)N[C@@H](CCC(=O)O)C(N)=O [Compound 73, (S)-5-amino-4-((S)-6-amino-2-(3-(4′-phenylbiphenyl-4-yl)propanamido)hexanamido)-5-oxopentanoic acid] | > 10000 | 254 | 300 | > 1000 | 97 | > 10000 | 541 | > 1000 |  |  |  |  |  |  |  | 
8 | NC(=O)[C@H](CCC(=O)O)NC(=O)[C@H](CC(=O)O)NC(=O)CCc1ccc(-c2ccc(-c3ccccc3)cc2)cc1 [Compound 74, (S)-5-amino-4-((S)-3-carboxy-2-(3-(4′-phenylbiphenyl-4-yl)propanamido)propanamido)-5-oxopentanoic acid] | > 1000 | 10.5 | 16 | 865 | 13.5 | > 1000 | 39 | 430 |  |  |  |  |  |  |  | 
9 | NC(=O)[C@H](CCC(=O)O)NC(=O)[C@H](Cc1ccc(O)cc1)NC(=O)CCc1ccc(-c2ccc(-c3ccccc3)cc2)cc1 [Compound 75, (S)-5-amino-4-((S)-3-(4-hydroxyphenyl)-2-(3-(4′-phenylbiphenyl-4-yl)propanamido)propanamido)-5-oxopentanoic acid] | > 10000 | 122 | 252 | > 5000 | 232 | > 10000 | > 1000 | > 1000 |  |  |  |  |  |  |  | 
10 | C[C@H](NC(=O)CCc1ccc(-c2ccc(-c3ccccc3)cc2)cc1)C(=O)N[C@@H](CCC(=O)O)C(N)=O [Compound 76, (S)-5-amino-4-((S)-2-(3-(4′-phenylbiphenyl-4-yl)propanamido)propanamido)-5-oxopentanoic acid] | > 5000 | 251 | 142 | > 1000 | 427 | > 5000 | 854 | > 10000 |  |  |  |  |  |  |  | 
11 | NC(=O)[C@H](CCC(=O)O)NC(=O)[C@H](Cc1c[nH]cn1)NC(=O)CCc1ccc(-c2ccc(-c3ccccc3)cc2)cc1 [Compound 77, (S)-4-((S)-3-(1H-imidazol-4-yl)-2-(3-(4′-phenylbiphenyl-4-yl)propanamido)propanamido)-5-amino-5-oxopentanoic acid] | > 50000 | 234 | > 1000 | > 1000 | 377 | > 10000 | > 1000 | > 5000 |  |  |  |  |  |  |  | 
12 | NC(=O)[C@H](CCC(=O)O)NC(=O)[C@H](CO)NC(=O)CCc1ccc(-c2ccc(-c3ccccc3)cc2)cc1 [Compound 78, (S)-5-amino-4-((S)-3-hydroxy-2-(3-(4′-phenylbiphenyl-4-yl)propanamido)propanamido)-5-oxopentanoic acid] | > 5000 | 206 | 116 | > 1000 | 367 | > 1000 | 729 | > 5000 |  |  |  |  |  |  |  | 
13 | CC(C)C[C@H](NC(=O)CCc1ccc(-c2ccc(-c3ccccc3)cc2)cc1)C(=O)N[C@@H](CCC(=O)O)C(N)=O [Compound 79, (S)-5-amino-4-((S)-4-methyl-2-(3-(4′-phenylbiphenyl-4-yl)propanamido)pentanamido)-5-oxopentanoic acid] | > 100000 | > 1000 | 203 | > 1000 | 443 | > 10000 | > 1000 | > 1000 |  |  |  |  |  |  |  | 
14 | NC(=O)CC[C@H](NC(=O)[C@H](CCC(=O)O)NC(=O)CCc1ccc(-c2cccs2)cc1)C(N)=O [Compound 81, (S)-5-((S)-1,5-diamino-1,5-dioxopentan-2-ylamino)-5-oxo-4-(3-(4-(thiophen-2-yl)phenyl)propanamido)pentanoic acid] | > 1000 | 18.6 | > 10000 | 48 | 801 | > 1000 | 204 | 651 |  |  |  |  |  |  |  | 
15 | NCCCC[C@H](NC(=O)[C@H](CCC(=O)O)NC(=O)CCc1ccc(-c2cccs2)cc1)C(N)=O [Compound 82, (S)-5-((S)-1,6-diamino-1-oxohexan-2-ylamino)-5-oxo-4-(3-(4-(thiophen-2-yl)phenyl)propanamido)pentanoic acid] | > 1000 | 44 | > 10000 | 73 | > 1000 | > 1000 | 234 | > 1000 |  |  |  |  |  |  |  | 
16 | NC(=O)[C@H](CC(=O)O)NC(=O)[C@H](CCC(=O)O)NC(=O)CCc1ccc(-c2cccs2)cc1 [Compound 83, (S)-5-((S)-1-amino-3-carboxy-1-oxopropan-2-ylamino)-5-oxo-4-(3-(4-(thiophen-2-yl)phenyl)propanamido)pentanoic acid] | > 1000 | 14.2 | > 10000 | 49 | > 1000 | > 1000 | 334 | 435 |  |  |  |  |  |  |  | 
17 | NC(=O)[C@H](Cc1ccc(O)cc1)NC(=O)[C@H](CCC(=O)O)NC(=O)CCc1ccc(-c2cccs2)cc1 [Compound 84, (S)-5-((S)-1-amino-3-(4-hydroxyphenyl)-1-oxopropan-2-ylamino)-5-oxo-4-(3-(4-(thiophen-2-yl)phenyl)propanamido)pentanoic acid] | 859 | 20.9 | > 5000 | 41 | 584 | > 1000 | 140 | 514 |  |  |  |  |  |  |  | 
18 | C[C@H](NC(=O)[C@H](CCC(=O)O)NC(=O)CCc1ccc(-c2cccs2)cc1)C(N)=O [Compound 85, (S)-5-((S)-1-amino-1-oxopropan-2-ylamino)-5-oxo-4-(3-(4-(thiophen-2-yl)phenyl)propanamido)pentanoic acid] | > 5000 | 25.6 | > 10000 | 62 | > 1000 | > 1000 | 348 | 835 |  |  |  |  |  |  |  | 
